“Also recorded” adds a separate entry of the source. Like-named read-outs stand apart in the source and are kept apart here.
Columns and labels:
[1] = biological target: CB1 (Homo sapiens, UniProt P21554); settings: at 100 μM; cited from earlier work
[2] = test system: paclitaxel-induced cold allodynia; assay: Paclitaxel-induced cold allodynia (acetone); format: in vivo, mouse; settings: for cold allodynia, chronic phase 1 treatment: 3 mg/kg per day i.p.×12 days
Method: In all studies, the experimenter was blinded to the treatment condition, and mice were randomly assigned to experimental conditions. Paclitaxel (4 mg/kg i.p.) was administered four times on alternate days (cumulative dose, 16 mg/kg i.p.) to induce neuropathic pain as described previously by our group (Deng et al., 2015). Control mice received an equal volume of cremophor-vehicle. Development of paclitaxel-induced allodynia was assessed on day 0, 4, 7, 11, and 14.
Effects of pharmacologic manipulations were assessed at 30 minutes after drug administration during the maintenance phase of paclitaxel-induced neuropathy (i.e., beginning day 18-20 after initial paclitaxel injection).
In experiments 2 and 3, pharmacologic manipulations were performed once daily for 12 consecutive days in each of the two phases of chronic treatment. Four days separated phase 1 and phase 2 chronic dosing in all studies comprising two phases of chronic dosing. Experiments 2 and 3 were performed concurrently using overlapping cohorts that were tested with a single vehicle (phase 1), vehicle (phase 2) group.
We then assessed the antiallodynic efficacy of chronic systemic administration of vehicle or morphine (10 mg/kg per day i.p.×12 days) administered during phase 2 in the same animals. Responsiveness to mechanical and cold stimulation was evaluated on treatment days 1, 4, 8, and 12 during phase 1 and on treatment days 16, 19, 23, and 27 during phase 2 (i.e., phase 2 started on day 16).
In experiment 4, we evaluated the impact of coadministration of morphine (10 mg/kg i.p.×12 days) with a submaximal dose of LY 2828360 (0.1 mg/kg per day i.p.×12 days) in WT and CB2 KO mice.
Response time (seconds) spent attending to (i.e., elevating, licking, biting, or shaking) the paw stimulated with acetone (Sigma-Aldrich) was measured in triplicate for each paw to assess cold allodynia as previously published. An acetone bubble (approximately 5 to 6 p.1) formed at the end of a blunt 1-ml syringe hub was gently applied to the plantar surface of the hind paw. Care was taken not to apply mechanical stimulation to the hind paw with the syringe itself. The total time the animal spent attending to the acetone-stimulated paw (i.e., elevation, shaking, or licking) was recorded over 1 minute after acetone application. Acetone was applied three times to each paw with a 3-minute interval between applications. Values for each animal were calculated as the mean of six determinations of acetone responsiveness derived from each mouse.

[3] = biological target: T1, mouse CB2 receptors (Mus musculus, UniProt P47936); assay: Myo-inositol phosphate-1 (IP1) accumulation, HEK mCB2; format: cell-based; settings: via mouse CB2
T1 construct: expressed in transfected cells
T1 sequence (P47936 whole entry): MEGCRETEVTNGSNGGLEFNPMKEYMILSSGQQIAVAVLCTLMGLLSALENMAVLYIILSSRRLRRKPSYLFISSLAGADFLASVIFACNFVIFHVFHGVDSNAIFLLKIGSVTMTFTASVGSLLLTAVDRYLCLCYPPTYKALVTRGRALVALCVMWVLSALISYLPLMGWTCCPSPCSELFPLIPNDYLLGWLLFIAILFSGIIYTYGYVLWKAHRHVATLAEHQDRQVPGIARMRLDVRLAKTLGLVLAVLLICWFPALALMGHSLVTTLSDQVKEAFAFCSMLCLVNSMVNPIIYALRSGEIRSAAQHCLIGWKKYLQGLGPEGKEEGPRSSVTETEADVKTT

[4] = biological target: T2, human CB2 (Homo sapiens, UniProt P34972); assay: Phosphorylated ERK1/2 detection, HEK hCB2; format: cell-based; set-up: expressed in transfected cells; settings: for Emax: read-out: pERK1/2 Emax
T2 sequence (P34972 whole entry): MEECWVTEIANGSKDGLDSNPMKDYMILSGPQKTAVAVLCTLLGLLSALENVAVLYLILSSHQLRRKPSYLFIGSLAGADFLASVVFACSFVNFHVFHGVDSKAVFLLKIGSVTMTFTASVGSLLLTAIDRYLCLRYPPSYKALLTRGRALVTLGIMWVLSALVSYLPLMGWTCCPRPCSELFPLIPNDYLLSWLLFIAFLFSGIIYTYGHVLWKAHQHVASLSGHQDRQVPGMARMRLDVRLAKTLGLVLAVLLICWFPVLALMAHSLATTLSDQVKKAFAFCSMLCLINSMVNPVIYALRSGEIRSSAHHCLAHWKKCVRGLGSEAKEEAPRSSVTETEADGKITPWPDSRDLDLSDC

[5] = test system: naloxone-precipitated opioid withdrawal; assay: Naloxone-precipitated opioid withdrawal in paclitaxel-treated mice; format: in vivo, mouse
Method: Alter the last injection of morphine (on day 28 for two-phase treatments, on day 13 for coadministration treatment), we challenged WT or CB2KO mice from experiments 2, 3, and 4 with vehicle, followed 30 minutes later by naloxone (5 mg/kg i.p.) to precipitate opioid receptor-mediated withdrawal. Mice were video-recorded for subsequent scoring of withdrawal-like behaviors for a 30-minute interval after challenge with vehicle or naloxone.
Mice were video-taped, and the number of jumps was scored in 5-minute intervals for a total observation period of 30 minutes after challenge with either saline or naloxone (5 mg/kg i.p.).

[6] = biological target: T2, human CB2; assay: On-cell western for receptor internalization, HEK hCB2; format: cell-based; set-up: expressed in transfected cells
[7] = biological target: T2, human CB2; settings: at 20 nM; cited from earlier work
[8] = in vivo; cited from earlier work
[9] = biological target: T2, human CB2; assay: Myo-inositol phosphate-1 (IP1) accumulation, HEK hCB2; format: cell-based; set-up: expressed in transfected cells; settings: via human CB2
[10] = test system: osteoarthritic knee pain; settings: cited from earlier work
[11] = biological target: T1, mouse CB2 receptors; assay: Forskolin-stimulated cAMP accumulation (cyclase), HEK mCB2; format: cell-based; settings: for Emax: read-out: Cyclase Emax
[12] = WT mice, 3 mg/kg per day i.p.×12 days after phase 1 morphine
[13] = paclitaxel-treated WT mice, naloxone 5 mg/kg i.p.

Chain of CB1 (P21554 whole entry, species assumed): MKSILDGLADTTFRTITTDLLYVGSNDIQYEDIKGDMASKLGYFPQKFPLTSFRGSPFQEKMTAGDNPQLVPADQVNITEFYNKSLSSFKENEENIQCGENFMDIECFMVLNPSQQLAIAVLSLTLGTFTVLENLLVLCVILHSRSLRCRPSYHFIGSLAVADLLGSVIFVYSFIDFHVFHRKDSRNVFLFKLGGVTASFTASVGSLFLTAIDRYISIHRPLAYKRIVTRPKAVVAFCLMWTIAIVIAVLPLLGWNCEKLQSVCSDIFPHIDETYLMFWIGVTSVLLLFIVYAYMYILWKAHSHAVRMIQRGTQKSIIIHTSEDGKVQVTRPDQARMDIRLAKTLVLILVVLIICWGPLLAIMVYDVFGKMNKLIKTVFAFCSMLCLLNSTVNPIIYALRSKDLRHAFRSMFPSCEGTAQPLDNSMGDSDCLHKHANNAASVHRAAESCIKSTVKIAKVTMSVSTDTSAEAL

In the case of `Cc1nc(N2CCN(C)CC2)c2nc(-c3ccccc3Cl)n(C3CCOCC3)c2n1` [LY2828360, 8-(2-chlorophenyl)-2-methyl-6-(4-methylpiperazin-1-yl)-9-(tetrahydro-2H-pyran-4-yl)-9H-purine], the “maximal stimulation of CB1” value [1] is given as 15%, the “time for responsiveness to cold stimulation to return to baseline” value ([2]; 3 mg/kg i.p. acute) is given as 3 days and the “cold allodynia, chronic phase 1 treatment” value ([2]; CB2KO mice) is given as “failed to suppress”. The “cold responsiveness, phase 2 treatment of morphine-tolerant mice” value ([2]; CB2KO mice, 3 mg/kg per day i.p.×12 days after phase 1 morphine) was “did not alter responsiveness to mechanical or cold stimulation”, the “cold allodynia, coadministration with morphine” value ([2]; CB2KO mice, LY2828360 0.1 mg/kg with morphine 10 mg/kg per day×12 days) was “sustained antiallodynic efficacy was absent” and the “development of tolerance to antiallodynic effect of phase 2 morphine, cold” value ([2]; CB2KO mice, LY2828360 phase 1, morphine phase 2) was “did not block the development of morphine tolerance”. The “paclitaxel-induced cold allodynia, high dose” value ([2]; WT mice, 3 mg/kg i.p. acute) was “fully reversed paclitaxel-induced allodynia and normalized responses to pre-paclitaxel baseline levels”, the “cold allodynia, chronic phase 1 treatment” value ([2]; WT mice) was “markedly suppressed paclitaxel-induced mechanical and cold allodynia throughout the observation interval” and the “cold allodynia, phase 2 treatment of morphine-tolerant mice” value [2, 12] was “fully reversed paclitaxel-induced allodynia and normalized responsiveness to pre-paclitaxel baseline levels”. The “tolerance to phase 2 treatment, cold” value [2, 12] was “tolerance did not develop”, the “cold allodynia, coadministration with morphine” value ([2]; WT mice, LY2828360 0.1 mg/kg per day i.p.×12 days with morphine 10 mg/kg per day×12 days) was “normalized cold responsiveness on days 1 and 4” and the “development of morphine tolerance under coadministration, cold” value ([2]; WT mice, LY2828360 0.1 mg/kg with morphine 10 mg/kg per day×12 days) was “morphine tolerance failed to develop”. For the same compound, the “development of tolerance to antiallodynic effect of phase 2 morphine, cold” value ([2]; WT mice, LY2828360 3 mg/kg per day×12 days phase 1, morphine 10 mg/kg×12 days phase 2) was “prevented the development of morphine tolerance”, the “paclitaxel-induced cold allodynia, acute dose response” value ([2]; WT mice, acute systemic (i.p.), dose-dependent) was “suppressed” and the “cold allodynia at low doses vs cremophor-vehicle controls” value ([2]; WT mice, doses lower than 0.3 mg/kg i.p.) was “neuropathic pain was prominent”. The “stability of antiallodynic efficacy (tolerance), cold” value ([2]; WT mice, phase 1, 3 mg/kg per day i.p.×12 days) was “stable throughout phase 1 treatment”, the IP1 accumulation [3] was “did not affect IP1 accumulation” and the “ERK1/2 phosphorylation time course” value ([4]; hCB2, 1 pM) was “increased ERK1/2 phosphorylation after 30 minutes, but not at 5 minutes”. The “ERK1/2 phosphorylation after PTX treatment” value ([4]; hCB2, 1 pM, PTX) was “abolished ERK1/2 phosphorylation”, the “stimulated phosphorylation of ERK1/2 in presence of SR144528” value ([4]; hCB2, SR144528 (1 pM)) was “completely blocked” and the Emax ([4]; human CB2, 05 mins incubation) was 22.1%. For the same compound, the Emax ([4]; human CB2, 30 mins incubation) was 32.3%, the “naloxone-precipitated jumps, WT compared with CB2KO mice” value ([5]; coadministration of LY2828360 with morphine, P=0.055) was “trended to produce a lower number of naloxone-precipitated jumps” and the “number of jumps, LY (1)-Mor (2) vs Veh (1)-Mor (2)” value ([5]; paclitaxel-treated CB2KO mice) was “did not differ”. For the same compound, the “number of jumps, LY (1)-Mor (2) vs Veh (1)-Veh (2)” value ([5]; paclitaxel-treated CB2KO mice) was “trended higher”, the “number of jumps, LY (1)-Mor (2) vs Veh (1)-Mor (2)” value [5, 13] was “did not differ” and the “number of naloxone-precipitated jumps, LY (1)-Mor (2) vs Veh (1)-Veh (2)” value [5, 13] was “did not differ”. For the same compound, the receptor internalization ([6]; HEK hCB2) was “failed to internalize the receptor”, the Emax ([6]; human CB2, 90 mins incubation, read-out: Internalization Emax) was 10.2% and the “maximal stimulation of CB2” value [7] was “approximately 87%”. The “central nervous system (CNS) penetration” value [8] was “good”, the IP1 accumulation [9] was “did not affect IP1 accumulation” and the “risks or discomforts in human subjects” value ([10]; osteoarthritic pain, up to 80 mg for 4 weeks) was “No specific risks or discomforts”. For the same compound, the “primary endpoint vs placebo / relief of osteoarthritis pain” value ([10]; patients with osteoarthritic knee pain, phase 2) was “ineffective in relieving pain associated with osteoarthritis; also recorded: did not differ”, the “forskolin-stimulated cAMP after PTX treatment” value ([11]; mCB2, 1 μM, PTX 300 ng/ml overnight) was “failed to affect cyclase levels at all time points” and the “time of efficacious inhibition of forskolin-stimulated adenylyl cyclase” value ([11]; mCB2, 1 μM, time course) was 30 min. For the same compound, the “inhibition of forskolin-stimulated cAMP accumulation in presence of SR144528” value ([11]; mCB2, 30-minute incubation, 1 μM SR144528 (SR2)) was “completely blocked”, the “inhibition of forskolin-stimulated cAMP accumulation, concentration response” value ([11]; mCB2, 5 minutes) was “had no effect” and the “inhibition of forskolin-stimulated cAMP accumulation, concentration response” value ([11]; mCB2, 30 minutes) was “potent, efficacious, and CB2 receptor mediated”. It also gave an Emax ([11]; mouse CB2, 05 mins incubation) of 18.9%, an EC50 ([11]; mouse CB2, 30 mins incubation, read-out: Cyclase EC50) of 13.6 nM and an Emax ([11]; mouse CB2, 30 mins incubation) of 53.4%.

From patent publication US20190314379A1, “METHODS OF USING CANNABINOID CB2 RECEPTOR AGONIST COMPOSITIONS TO SUPPRESS AND PREVENT OPIOID TOLERANCE AND WITHDRAWAL IN A SUBJECT” (Indiana University Research and Technology Corporation, priority 2018, published 2019)
